Measurements as given in article PMC11530130, “Peripherally restricted PICK1 inhibitor mPD5 ameliorates pain behaviors in murine inflammatory and neuropathic pain models” (JCI Insight, 2024).
Where “and” joins values, the source holds several entries; their conditions need not be identical. Equal entries are not always repeated.

Legend:
Type in all cases: in vivo, mouse
[1] = tested on: mice, CIBP model (NCTC 2472 cell inoculation); assay: Cancer-induced bone pain (CIBP) model, von Frey; conditions: for effect on PWT: CIBP, female mice
Experimental: (§1) solution (0.05 mg/kg) injected s.c. 30 min before surgery (10 μL/g). For surgery, mice were anaesthetised with ketamine (100 mg/kg, i.p.) and xylazine (10 mg/kg, i.p.) (volume 10 µL/g) with 100 μL of 1% xylocaine solution infiltrated at the site of the incision. The distal trifurcation of the sciatic nerve was identified, and the tibial and common peroneal branches were ligated with polypropylene nonabsorbable 6-0 sutures (Ethicon) and 1 mm was cut out, leaving the sural branch intact. The wound was closed with sutures, and the animals were allowed to recover and returned to their cages. Two subcutaneous injections of buprenorphine (0.05 mg/kg) were performed with an 8 to 12 hours delay decreasing pain due to the surgery […]
(§2) The remaining SNI pain experiments were performed in-house using the following procedure.
(§3) SNI surgery was performed on the left hindleg of C57BL/6J male and female mice (Janvier, France) under 2% isoflurane anaesthesia. Skin on the lateral surface was incised between hip and knee followed by lengthwise division of the biceps femoris muscle leading to exposure of the three branches of the sciatic nerve. Sural branch was left intact, while the peroneal and tibial branches were ligated with a single surgical knot and axotomized distally of the ligation.
(§4) Wounds were closed with surgical glue or medical clips and animals were monitored daily for signs of stress or discomfort, but in all cases recovered uneventfully.
(§5) Induction of Diabetic neuropathy (STZ model).
(§6) Diabetes was induced by a single i.p. injection of […] streptozocin (STZ) solution (100 μL/10 g, Sigma-Aldrich S0130, batch #WXBB7152V) in male seven-week-old C57BL/6J (Charles River) mice. Glycemia was tested before, and seven days after injection. All injected mice had blood glucose concentration >350 mg/dL from day seven and were used for analgesic testing of the compounds from day 14. One mouse had to be euthanized at seven days post injection. This experiment was performed by Phenotype Expertise, Marseilles, France - Pain and CNS behaviour CRO under supervision of Stéphane Gaillard, PhD (CEO).
(§7) Induction of cancer induced bone pain (CIBP model).
(§8) Osteosarcoma cell line NCTC 2472 (American Type Culture Collection, CCL-11TM) was cultured for two weeks prior to surgery in NCTC-135 medium (Sigma-Aldrich, Denmark) supplemented with sodium hydrogen carbonate and 10% equine serum (Sigma-Aldrich, Denmark). On the day of surgery, cells were washed with PBS and incubated with 3 mL trypsin-EDTA for five min followed by centrifugation (2800 rpm, 3 min). Supernatant was removed, and cell pellet resuspended in PBS to obtain a cell density of 10^7 cells/mL.
(§9) Two separate cohorts of female C3H/HeNHsd mice (Envigo, Netherlands) of 7-8 weeks, were anaesthetized with 6.25 mg/kg xylazine (Rompun vet, 20 mg/mL, Bayer, KVP Pharma + Veterinär Produkte GmbH, Germany, Batch: KV02BHF) and 43.75 mg/kg ketamine (Ketaminol vet, 100 mg/mL, MSD Animal Health, AN Boxmeer, The Netherlands, Batch:
(§10) A140A01) and received 1.0-1.2% isoflurane (1000 mg/g isoflurane, Attane vet, ScanVet, Piramal Critical Care Ltd., UK, Batch: G123J18B) during surgery. The mouse was placed on a 37 °C heating pad. Both hind legs were shaved, and a small horizontal incision was made under the knee followed by a vertical incision of approximately 0.5 cm until the patellar tendon was exposed. The patellar tendon was moved to the lateral side exposing the distal epiphysis of the femur. A hole was made in the middle of the distal epiphysis by gently pushing a 30 G needle (0.3x12 mm, 30 Gx1/2”, Luer-Lock, CHIRANA T. Injecta, CH30012) through the bone while rotating. The position of the needle was confirmed by X-ray imaging (IVIS Lumina XR Apparatus, Caliper Life Sciences, Belgium). Following resuspension, 10 μL, corresponding to […]
(§11) […] NCTC 2472 cells or PBS (sham mice), was injected in the bone marrow cavity with an insulin syringe (1 mL Luer, BD PlastipakTM, 303172) attached to a 30 G needle and left in the […]
(§12) femur for one min. […]

[2] = tested on: mice, CIBP model (NCTC 2472 cell inoculation); assay: CIBP model, limb use score; conditions: for limb use score (Fig S7B): CIBP mice, individual animals; for effect on limb-use score: CIBP, female mice
Experimental: as §1, §2, §3, §4, §5, §6, §7, §8, §9, §10, §11, §12

[3] = tested on: mice, CIBP model (NCTC 2472 cell inoculation); assay: CIBP model, static weight bearing; conditions: for static weight bearing (Fig S7C): CIBP mice, individual animals; for effect on weight-bearing ratio: CIBP, female mice
Experimental: as §1, §2, §3, §4, §5, §6, §7, §8, §9, §10, §11, §12

naive mice = assay: Capsaicin test (licking time); parameters: capsaicin-induced licking time, individual mice: unit not given here; conditions: for capsaicin-induced licking time, individual mice: female and male; for effect on capsaicin-induced licking time: naive mice, both sexes
Experimental: Naïve wildtype male and female mice (10 weeks of age) were habituated to handling and experimental set up for one week prior to data collection. […]
Mice were pretreated with 10 μmol/kg mPD5, 10 mg/kg morphine (RH Pharmacy, Denmark, Vnr. 475249), or PBS 45 min before habituation to observation container (glass cylinder surrounded by mirrors on 2 sides) for 15 min. Mice then received an intraplantar injection of 20 µl capsaicin (1.6 ug/paw) (sigma CAS Number:404-86-4, diluted with 1:1:8 solution of tween-20, 70% ethanol, and MilliQ water) in one hind paw and were reintroduced to the observation container. Mice were recorded for three min after i.pl. injection with capsaicin and euthanized the same day. Mice were scored manually for the amount of time spent paw licking within three min after capsaicin administration. […]
Females were weighed on a regular basis from removal of the males […]
Unless otherwise stated, all data were analysed using GraphPad Prism 9.4.1. and presented as mean +-SEM with the significance level set to p < 0.05. For locomotion and elevated plus maze, Ethovision XT 13 (Noldus) was used to track the distance travelled by each animal. For within group analysis (i.e., von Frey experiments), two-way ANOVA followed by Dunnett’s post hoc test was used. For between group analysis of multiple time points (i.e., locomotion experiments), two-way ANOVA was used without post hoc test due to lack of treatment significance in the ANOVA test. For the limb use experiment, data pre versus post treatment was analysed with a Kruskal Wallis test due to the non-parametric nature of the data. When analysing histograms of three groups or more (i.e., marble burying and elevated plus maze),

CN1CC[C@]23c4c5ccc(O)c4O[C@H]2[C@@H](O)C=C[C@H]3[C@H]1C5 [morphine]
von Frey paw withdrawal threshold, individual animals (Fig 4C) ([1]; BL1 (baseline 1)): 1.5 and 0.8 and 0.6 and 1 (2×) and 0.9 and 1.3 and 2 and 1.7 and 1.2
von Frey paw withdrawal threshold, individual animals (Fig 4C) ([1]; BL2 (baseline 2)): 2.9 and 1.1 and 0.8 and 2.6 and 1.3 (2×) and 1.9 and 2.1 (2×) and 1.2
effect on PWT ([1]; s.c. 5 mg/kg): partial but significant increase
von Frey paw withdrawal threshold, individual animals (Fig 4C) ([1]; Post (after treatment)): 1.1 (2×) and 1 (2×) and 1.2 (3×) and 0.9 and 1.3 (2×)
von Frey paw withdrawal threshold, individual animals (Fig 4C) ([1]; Pre (before treatment)): 0.6 (2×) and 0.2 (3×) and 0.4 (3×) and 0.5 and 0.3
limb use score (Fig S7B) ([2]; BL1): 4
limb use score (Fig S7B) ([2]; BL2): 4
limb use score (Fig S7B) ([2]; Post (after treatment)): 3 (3×) and 1 (2×) and 2 (4×) and 0
limb use score (Fig S7B) ([2]; Pre (before treatment)): 2 (3×) and 1 (5×) and 0 (2×)
effect on limb-use score ([2]; s.c. 5 mg/kg): partial but significant increase
static weight bearing (Fig S7C) ([3]; BL1): 50.01 and 50.76 and 43.99 and 53.97 and 55.19 and 55.68 and 51.81 and 54.18 and 46.08 and 56.67
static weight bearing (Fig S7C) ([3]; BL2): 47.61 and 46.15 and 51.95 and 48.94 and 50.73 and 54.51 and 47.91 and 45.61 and 50.32 and 52.04
static weight bearing (Fig S7C) ([3]; Post (after treatment)): 30.29 and 34.04 and 29.99 and 42.43 and 37.09 and 45.12 and 35.66 and 34.06 and 42.67 and 36.03
static weight bearing (Fig S7C) ([3]; Pre (before treatment)): 24.27 and 31.25 and 36.25 and 30.33 and 34.01 and 33.28 and 32.53 and 29.97 and 30.04 and 32.35
effect on weight-bearing ratio ([3]; s.c. 5 mg/kg): partial but significant increase
capsaicin-induced licking time, individual mice (naive mice; 10 mg/kg): 0
effect on capsaicin-induced licking time (naive mice; s.c. 10 mg/kg): significantly reduced the licking time

CCCCCCCCCCCCCC(=O)N(CCOCCOCCC(=O)N[C@@H](Cc1c[nH]cn1)C(=O)N[C@@H](Cc1c[nH]c2ccccc12)C(=O)N[C@@H](CC(C)C)C(=O)N[C@@H](CCCCN)C(=O)N[C@H](C(=O)O)C(C)C)CCOCCOCCC(=O)N[C@@H](Cc1c[nH]cn1)C(=O)N[C@@H](Cc1c[nH]c2ccccc12)C(=O)N[C@@H](CC(C)C)C(=O)N[C@@H](CCCCN)C(=O)N[C@H](C(=O)O)C(C)C [mPD5, myristoyl-NPEG4-(HWLKV)2]
effect on PWT ([1]; s.c. 10 μmol/kg): no effect
effect on limb-use score ([2]; s.c. 10 μmol/kg): no effect
effect on weight-bearing ratio ([3]; s.c. 10 μmol/kg): no effect
capsaicin-induced licking time, individual mice (naive mice; 10 umol/kg, female mice): 12.96 and 9.28 and 8.67 and 18.61
capsaicin-induced licking time, individual mice (naive mice; 10 umol/kg, male mice): 12.98 and 14.19 and 30.63
effect on capsaicin-induced licking time (naive mice; s.c. 10 μmol/kg): no effect on time spent licking
